Experimental data taken from patent publication US20230250145A1, “COMPOSITIONS AND METHODS FOR THE TREATMENT OF CANCER” (MOMA Therapeutics, Inc., priority 2020, published 2023).

Columns and labels:
[1] = tested on: FANCM mRNA transcript in UWB1.289; assay: qPCR of FANCM mRNA expression after doxycycline induced shRNA; type: cell-based; conditions: three days of doxycycline treatment
Excerpt: All shRNAs were cloned into pLKO-tet-on vector, packaged into lentivirus and titered for each cell line for an MOI <0.7.

[2] = tested on: FANCM protein; assay: Western blot of FANCM protein levels; type: cell-based; conditions: cells treated with CRISPR RNP sgRNA (FIG. 4B)
Description: Cells were plated for all conditions at a necessary density for analysis (1×10^7 cells per/reaction for nuclear isolation). Following treatment, cells were washed with PBS and trypsinized with TrypLE until loss of adherence. Cells were collected in a 15 mL falcon tube and spun down into a pellet at 1,000 RPM×5 minutes. The supernatant is aspirated and pellets were then placed into downstream protocol (NE-PER cell fractionation kit protocol as provided by vendor). Samples were run on 3-8% Bis-tris gels (Thermo fisher Cat #EA0375PK2) for 45 minutes @ 200 v. […] Membranes were stained overnight at 4 degrees with appropriate antibodies.
FANCM: Anti-FANCM Antibody, clone CV5.1 (MABC545) 1:1000 dilution
Lamin B: Recombinant Anti-Lamin B1 antibody [EPR8985(B)] (ab133741) 1:2000 dilution

In the case of “shRNA #1307: doxycycline-inducible shRNA targeting FANCM, SEQ ID NO: 77, GACTTCATGAAACTCTATAAT”, the “FANCM mRNA transcripts (qPCR)” value [1] is reported as “loss of FANCM mRNA transcripts”.
With “shRNA #1858: doxycycline-inducible shRNA targeting FANCM, SEQ ID NO: 78, AGGACGAGAGGAACGTATTTA” the “FANCM mRNA transcripts (qPCR)” value [1] was “loss of FANCM mRNA transcripts”.
“FANCM sgRNA #4: sgRNA targeting the FANCM locus, SEQ ID NO: 70, AAAGACCTTTATTGCCGCCG (synthetic chemically modified sgRNA (Synthego EZ kit), pattern not given here)” was tested, and the “FANCM protein expression (Western blot)” value [2] was “loss of FANCM protein expression”.
“FANCM sgRNA #3: sgRNA targeting the FANCM locus, SEQ ID NO: 69, CATGACCACGGCGGCAATAA (synthetic chemically modified sgRNA (Synthego EZ kit), pattern not given here)” was tested, and the “FANCM protein expression (Western blot)” value [2] was “loss of FANCM protein expression”.
